According to US9376420B2 (YUHAN CORPORATION, priority 2012, dated 2016):

Molecular target: T1, human LXRβ (Homo sapiens, UniProt P55055)
T1 construct: expressed in transfected cells; host or cells: HEK293 cells (ATCC CRL-1573), transient transfection with pFA-hLXRβ/GAL4 and pUAS
T1 sequence (P55055 222-460 limits assumed): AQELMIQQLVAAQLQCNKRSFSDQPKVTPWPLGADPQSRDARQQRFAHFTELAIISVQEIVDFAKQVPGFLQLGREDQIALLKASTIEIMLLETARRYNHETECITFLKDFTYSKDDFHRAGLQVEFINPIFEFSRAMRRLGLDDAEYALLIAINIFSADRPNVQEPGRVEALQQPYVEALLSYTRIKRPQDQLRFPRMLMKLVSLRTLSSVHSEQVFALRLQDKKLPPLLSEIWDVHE
Assay: Assay for Transcriptional Activity of LXRβ (GAL4-hLXRβ LBD luciferase reporter, transient transfection)
Assay type: cell-based
Details: HEK293 cells transfected with pFA-hLXRβ/GAL4 and pUAS, 24 hours; for Emax: fold value in comparison with the control (DMSO-treated group); for EC50: increase of transcriptional activity of LXRβ, average of three independent tests
Text: The ligand-binding domain (LBD) cDNA of human LXRβ was inserted into an expression vector (pFA, Stratagene, USA) site adjacent to the yeast GAL4 transcription factor DNA binding domain to prepare an expression construct (pFA-hLXRβ/GAL4) (Willey et al., Genes & Development 9 1033-1045 (1995). The GAL4-responsive luciferase reporter plasmid, i.e., pUAS (Stratagene, USA), contained five copies of the GAL4 response element placed adjacent to the promoter and the luciferase reporter gene. The pFA-hLXRβ/GAL4 and pUAS were introduced into mammalian cells through transient transfection, followed by measuring the transcriptional activity of LXRβ.
HEK293 cells (human kidney cells, sATCC, CRL-1573) were incubated at a T-75 flask containing a DMEM supplemented with 10% fetal bovine serum (FBS) in a 37° C., until they reach about 70˜80% confluency. The culture media containing the cells was added to each well of a 96-well plate in a density of 5×10^4 cells per well. The pFA-hLXRβ/GAL4 and pUAS was transfected to the cells using a cationic-lipid transfection reagent (Lipofectamine™, Invitrogen), through culturing at 37° C. for 3 hours for transient transfection according to the manufacturer's instruction. The test compounds were dissolved in dimethyl sulfoxide (DMSO) in the concentrations of 50, 30, 10, 3, 1, 0.3, 0.1, 0.03, and 0.01 μM and then cells were treated with the prepared compound-containing solution (100 μl). The cells were incubated at 37° C. for 24 hours. After removal of the medium from each well, the lysis buffer (25 mM Tricine pH7.8, 2 mM DTT, 2 mM EGTA, 10% glycerol, 1% Triton X-100) was added with the amount of 20 μl per each well, and the plate was stirred at room temperature for 15 minutes. The luciferase reagent (prepared by adding 10 ml of the luciferase buffer (Promega) to 1 vial of the luciferase substrate (Promega)) was added to each well with the amount of 100 μl per well, followed by assaying with a luminometer according to the manufacturer's instruction.
The dose-response curve for calculating the EC50 values of the test compounds on the increase of transcriptional activity of LXRβ was prepared using the known LXR agonist (i.e., N-(2,2,2-trifluoro-ethyl)-N-[4-(2,2,2-trifluoro-1-hydroxy-1-trifluoromethyl-ethyl)-phenyl]-benzenesulfonamide) as a positive control and the vehicle (DMSO) as a negative control. The dose-response curve was produced from the 9-point curve having different concentrations at a 1/2 log unit. The EC50 value of a test compound, which is defined as a concentration for initiating the reaction corresponding to the half value between the Top value (i.e., the maximum value) and the Bottom value (baseline), was calculated according to the following equation. Y=Bottom+(Top-Bottom)/(1+10^((log EC50-X)*Hill Slope)).
In the above equation, Y is the observed value; X is the log concentration; Hill Slope is the slope of the curve; and Top and Bottom are the maximum value of test compound and the baseline value, respectively.
The following tables 1 and 2 show the EC50 values of the test compounds measured as in the above. In the tables 1 and 2, each EC50 value represents an average value obtained from three independent tests.

Row | SMILES | Emax | EC50
1 | CS(=O)(=O)c1ccc(-c2ccc(C3CC(C(O)(C(F)(F)F)C(F)(F)F)=NN3c3ccccc3Cl)cc2)c(C(F)(F)F)c1 (stereo not shown) [Example 289, 1-(2-chloro-phenyl)-5-[4′-(methylsulfonyl)-2′-(trifluoromethyl)-biphenyl-4-yl]-3-[di-(trifluoromethyl)-hydroxy-methyl]-4,5-dihydro-1H-pyrazole] | 32 fold | 0.32 µM
2 | O=C(O)C(F)(F)F.OC(C1=NN(c2ccccc2Cl)C(c2cccc(C3=CCNCC3)c2)C1)(C(F)(F)F)C(F)(F)F (stereo not shown) [Example 230, 1-(2-chloro-phenyl)-5-[3-(1,2,3,6-tetrahydropyridin-4-yl)-phenyl]-3-[di-(trifluoromethyl)-hydroxy-methyl]-4,5-dihydro-1H-pyrazole trifluoroacetate] | 137 fold | 0.036 µM
3 | CC(=O)c1cccc(-c2ccc(C3CC(C(O)(C(F)(F)F)C(F)(F)F)=NN3c3ccccc3Cl)cc2F)c1 (stereo not shown) [Example 361, 5-(3′-acetyl-2-fluoro-biphenyl-4-yl)-1-(2-chloro-phenyl)-3-[di-(trifluoromethyl)-hydroxy-methyl]-4,5-dihydro-1H-pyrazole] | 39 fold | 0.632 µM
4 | Fc1cncc(-c2cccc(C3CC(C(F)(F)C(F)(F)F)=NN3c3ccc(F)cc3F)c2)c1 (stereo not shown) [Example 74, 1-(2,4-difluoro-phenyl)-5-(3-(5-fluoro-pyridin-3-yl)-phenyl)-3-pentafluoroethyl-4,5-dihydro-1H-pyrazole] | 29 fold | 2.96 µM
5 | CS(=O)(=O)N1CC=C(c2ccc(F)c(C3CC(C(F)(F)C(F)(F)F)=NN3c3ccc(F)cc3F)c2)CC1 (stereo not shown) [Example 149, 1-(2,4-difluoro-phenyl)-5-[2-fluoro-5-(1-methanesulfonyl-1,2,3,6-tetrahydropyridin-4-yl)-phenyl]-3-pentafluoroethyl-4,5-dihydro-1H-pyrazole] | 124 fold | 0.303 µM
6 | Cc1ccccc1-c1ccc(C2CC(C(O)(C(F)(F)F)C(F)(F)F)=NN2c2ccc(F)cc2F)cc1 (stereo not shown) [Example 371, 1-(2,4-difluoro-phenyl)-5-(2′-methyl-biphenyl-4-yl)-3-[di-(trifluoromethyl)-hydroxy-methyl]-4,5-dihydro-1H-pyrazole] | 34 fold | 0.636 µM
7 | CS(=O)(=O)c1ccc(-c2cccc(C3CC(C(F)(F)C(F)(F)F)=NN3c3ccccc3Cl)c2)cc1 (stereo not shown) [Example 106, 1-(2-chloro-phenyl)-5-(4′-methylsulfonyl-biphenyl-3-yl)-3-pentafluoroethyl-4,5-dihydro-1H-pyrazole] | 85 fold | 1.16 µM
8 | OC(C1=NN(c2ccccc2Cl)C(c2ccc(-c3ccc(F)cc3)cc2)C1)(C(F)(F)F)C(F)(F)F (stereo not shown) [Example 246, 1-(2-chloro-phenyl)-5-(4′-fluoro-biphenyl-4-yl)-3-[di-(trifluoromethyl)-hydroxy-methyl]-4,5-dihydro-1H-pyrazole] | 47 fold | 1.41 µM
9 | CNCCCS(=O)(=O)c1cccc(-c2cccc(C3CC(C(F)(F)C(F)(F)F)=NN3c3ccc(F)cc3F)c2)c1 (stereo not shown) [Example 89, 1-(2,4-difluoro-phenyl)-5-{3′-[3-(N-methyl-amino)-propane-1-sulfonyl]-biphenyl-3-yl}-3-pentafluoroethyl-4,5-dihydro-1H-pyrazole] | 106 fold | 0.382 µM
10 | CN(C)c1ccc(-c2ccc(C3CC(C(O)(C(F)(F)F)C(F)(F)F)=NN3c3ccccc3Cl)cc2)cc1 (stereo not shown) [Example 254, 1-(2-chloro-phenyl)-5-(4′-dimethylamino-biphenyl-4-yl)-3-[di-(trifluoromethyl)-hydroxy-methyl]-4,5-dihydro-1H-pyrazole] | 50 fold | 7.06 µM
11 | COc1ccc(-c2cccc(C3CC(C(F)(F)C(F)(F)F)=NN3c3ccccc3Cl)c2)cc1OC (stereo not shown) [Example 112, 1-(2-chloro-phenyl)-5-(3′,4′-dimethoxy-biphenyl-3-yl)-3-pentafluoroethyl-4,5-dihydro-1H-pyrazole] | 57 fold | 8.52 µM
12 | CC(=O)c1ccc(-c2ccc(C3CC(C(O)(C(F)(F)F)C(F)(F)F)=NN3c3ccccc3Cl)c(F)c2)cc1 (stereo not shown) [Example 341, 1-(2-chloro-phenyl)-5-(4′-acetyl-3-fluoro-biphenyl-4-yl)-3-[di-(trifluoromethyl)-hydroxy-methyl]-4,5-dihydro-1H-pyrazole] | 112 fold | 0.353 µM
13 | COc1ccc(-c2cccc(C3CC(C(F)(F)C(F)(F)F)=NN3c3ccc(F)cc3F)c2)cn1 (stereo not shown) [Example 56, 1-(2,4-difluoro-phenyl)-5-[3-(6-methoxy-pyridin-3-yl)-phenyl]-3-pentafluoroethyl-4,5-dihydro-1H-pyrazole] | 78 fold | 2.22 µM
14 | CS(=O)(=O)c1cccc(-c2ccc(C3CC(C(F)(F)C(F)(F)F)=NN3c3ccccc3Cl)cc2)c1 (stereo not shown) [Example 5, 1-(2-chloro-phenyl)-5-[3′-(methylsulfonyl)-biphenyl-4-yl]-3-pentafluoroethyl-4,5-dihydro-1H-pyrazole] | 48 fold | 0.33 µM
15 | OC(C1=NN(c2ccccc2Cl)C(c2ccc(-c3cncnc3)cc2)C1)(C(F)(F)F)C(F)(F)F (stereo not shown) [Example 258, 1-(2-chloro-phenyl)-5-(4-pyrimidin-5-yl-phenyl)-3-[di-(trifluoromethyl)-hydroxy-methyl]-4,5-dihydro-1H-pyrazole] | 62 fold | 0.302 µM
16 | CNCCCS(=O)(=O)c1cccc(-c2ccc(C3CC(C(O)(C(F)(F)F)C(F)(F)F)=NN3c3ccccc3Cl)cc2)c1 (stereo not shown) [Example 334, 1-(2-chloro-phenyl)-5-{3′-[3-(methyl-amino)-propane-1-sulfonyl]-biphenyl-4-yl}-3-[di-(trifluoromethyl)-hydroxy-methyl]-4,5-dihydro-1H-pyrazole] | 102 fold | 0.295 µM
17 | CS(=O)(=O)c1cccc(-c2cccc(N3N=C(C(F)(F)C(F)(F)F)CC3c3ccc(F)cc3F)c2)c1 (stereo not shown) [Example 206, 5-(2,4-difluoro-phenyl)-1-[3′-(methylsulfonyl)-biphenyl-3-yl]-3-pentafluoroethyl-4,5-dihydro-1H-pyrazole] | 87 fold | 1.4 µM
18 | CNCCCS(=O)(=O)c1cccc(-c2ccc(C3CC(C(O)(C(F)(F)F)C(F)(F)F)=NN3c3ccc(F)cc3F)cc2)c1 (stereo not shown) [Example 412, 1-(2,4-difluoro-phenyl)-5-{3′-[3-(methyl-amino)-propane-1-sulfonyl]-biphenyl-4-yl}-3-[di-(trifluoromethyl)-hydroxy-methyl]-4,5-dihydro-1H-pyrazole] | 53 fold | 0.727 µM
19 | Nc1cccc(-c2ccc(C3CC(C(O)(C(F)(F)F)C(F)(F)F)=NN3c3ccccc3Cl)cc2)c1 (stereo not shown) [Example 253, 5-(3′-amino-biphenyl-4-yl)-1-(2-chloro-phenyl)-3-[di-(trifluoromethyl)-hydroxy-methyl]-4,5-dihydro-1H-pyrazole] | 55 fold | 1.07 µM
20 | CCOc1cccc(-c2ccc(C3CC(C(O)(C(F)(F)F)C(F)(F)F)=NN3c3ccccc3Cl)c(F)c2)c1 (stereo not shown) [Example 339, 1-(2-chloro-phenyl)-5-(3′-ethoxy-3-fluoro-biphenyl-4-yl)-3-[di-(trifluoromethyl)-hydroxy-methyl]-4,5-dihydro-1H-pyrazole] | 71 fold | 1.11 µM
